According to patent US4889634A, “Dialysate solution containing hydroxypropyl-beta-cyclodextrin and method of using same” (priority 1988, dated 1989):

Assays:
[1] = tested on: rats [Crl:CD(SD) BR strain]; assay: 14-day intravenous toxicity study in rats; assay type: in vivo, rat; conditions: rat, in vivo, iv, 200 mg/kg
Experimental: (§1) As part of the toxicological evaluation of HPBCD, control groups of animals were dosed with HPBCD alone.
Two groups (5/sex/group) of rats [Crl:CD(SD) BR strain] were used for this study. Control rats were given 200 mg of salt per kilogram of body weight intravenously administered in a saline control solution comprising 20% salt by weight in water. The saline control was administered every second day for 14 days (i.e. seven injections). The treated rats were given 200 mg of HPBCD per kilogram of body weight intravenously administered (200 mg/kg i.v. HPBCD) via a HPBCD solution containing 20% HPBCD by weight in water on the same injection schedule. […] At the end of the study the animals were necropsied, gross pathology was observed, histopathological samples were prepared and blood was drawn for clinical laboratory measurements.

Cynomolgus monkeys = conditions: cynomolgus monkey, in vivo
Experimental: as §1
Two groups (1/sex/group) of Cynomolgus monkeys were used for this study. Control monkeys were given 200 mg of salt per kilogram of body weight intravenously administered as a saline control solution of 20% by weight in water. The saline control was administered every second day for 14 days (i.e. 7 doses). The treated monkeys were given 200 mg/kg i.v. HPBCD on the same injection schedule. […] At the end of the study the animals were necropsied, gross pathology was observed, histopathology samples were prepared and blood was drawn for clinical laboratory measurements.

normal rats = assay: relative nephrotoxicity of HPBCD and BCD, intraperitoneal; assay type: in vivo, rat; conditions: for Mortality (died/total): BCD 0.75% w/v, HPBCD 1.5 and 3% w/v, 15 ml/100 g i.p.
Experimental: A first study was conducted to determine the relative nephrotoxicity of HPBCD and BCD. A control group using phosphate buffer solution was also included in the study.
Three groups of normal rats were utilized in this study. […] Group I rats were given the vehicle solution of phosphate buffer saline (PBS). Group II rats were subdivided into three sub-groups. The first sub-group received a solution having a concentration of 1.5% HPBCD, the second sub-group received a solution having a concentration of 3% HPBCD while the third sub-group received a solution having a concentration of 6% HPBCD. Group III rats were given a solution having a concentration of 0.75% BCD.
Animals from each group were sacrificed at 24 and 72 hours after injection of the peritoneal solution. The animals were sacrificed under general anesthesia and exsanguinated from the abdominal aorta. Plasma was separated and blood urea nitrogen and creatinine was measured and used as an index of renal toxicity of the solutions.

[2] = 1 day, BCD 0.75%, HPBCD 1.5 and 3%
[3] = 3 day, BCD 0.75%, HPBCD 1.5 and 3%

**Q.** How did the Hemoglobin [1] turn out when hydroxypropyl-beta-cyclodextrin [HPBCD] was run?
**A.** 13.6 ± 3.06 G/DL

**Q.** What about the Ionic phosphate [1] of the same substance?
**A.** 8.3 ± 0.82 mg/dL

**Q.** What about the Lymphocytes [1] of the same substance?
**A.** 6.80 ± 2.42 × 10^3 /mm^3

**Q.** What about the Mean corpuscle [1] of the same substance?
**A.** 65.0 ± 2.70 fL

**Q.** What about the Mean corpuscle hemoglobin [1] of the same substance?
**A.** 18.4 ± 2.41 pg

**Q.** What about the Monocytes [1] of the same substance?
**A.** 0.05 ± 0.08 ×10^3 /mm^3

**Q.** And the Normal blood cells [1]?
**A.** 0.0 ± 0.00 /100 white blood cells

**Q.** And the Platelet count [1]?
**A.** 924 ± 395.20 × 10^3 /mm^3

**Q.** What about the Potassium [1] of the same substance?
**A.** 4.5 ± 0.16 mmol/L

**Q.** What about the Red blood cell [1] of the same substance?
**A.** 7.32 ± 1.00 × 10^6 /mm^3

**Q.** What about the Segmented neutrophils [1] of the same substance?
**A.** 0.49 ± 0.22 × 10^3 /mm^3

**Q.** What about the Sodium [1] of the same substance?
**A.** 141.0 ± 1.10 mmol/L

**Q.** What about the Total bilirubin [1] of the same substance?
**A.** 0.3 ± 0.05 mg/dL

**Q.** And the Total proteins [1]?
**A.** 6.5 ± 0.38 G/dL

**Q.** What about the Changes in behavior (Cynomolgus monkeys) of the same substance?
**A.** No changes in behavior were observed

**Q.** And the “Changes in daily food consumption” value (Cynomolgus monkeys)?
**A.** No weight changes were observed (TABLE XIII) or changes in daily food consumption

**Q.** And the “Gross pathological changes and histopathological findings” value (Cynomolgus monkeys)?
**A.** No gross pathological changes and no histopathological findings were observed

**Q.** And the “Hematology and clinical chemistry values” (Cynomolgus monkeys)?
**A.** No differences were seen

**Q.** And the Weight changes (Cynomolgus monkeys)?
**A.** No weight changes were observed

**Q.** What about the Basophils (Cynomolgus monkeys; 200 mg/kg) of the same substance?
**A.** 0.00 × 10^3 /mm^3

**Q.** What about the Immature neutrophils (Cynomolgus monkeys; 200 mg/kg) of the same substance?
**A.** 0.00 × 10^3 mm^3

**Q.** What about the Normal blood cells (Cynomolgus monkeys; 200 mg/kg) of the same substance?
**A.** 0.00 /100 white blood cells

**Q.** What about the “Mortality (died/total)” value (normal rats; 1 day) of the same substance?
**A.** 0/6

**Q.** What about the Kidney size (normal rats; [2]) of the same substance?
**A.** normal

**Q.** What about the Kidney weight (normal rats; [2]) of the same substance?
**A.** normal

**Q.** What about the BUN (normal rats; 1 day, BCD 0.75%, HPBCD 1.5 and 3%, Table III) of the same substance?
**A.** 14.8 mg/dL

**Q.** What about the “Mortality (died/total)” value (normal rats; 3 day) of the same substance?
**A.** 0/6

**Q.** What about the Kidney size (normal rats; [3]) of the same substance?
**A.** normal

**Q.** What about the Kidney weight (normal rats; [3]) of the same substance?
**A.** normal

**Q.** And the BUN (normal rats; 3 day, HPBCD 1.5 and 3%, Table III)?
**A.** 19.8 mg/dL

**Q.** What about the BUN (normal rats; HPBCD 1.5%, 1d, n = 6) of the same substance?
**A.** 14.8 mg/dL

**Q.** And the “Final body weight Wt (f)” value (normal rats; HPBCD 1.5%, 1d, n = 6)?
**A.** 210 g

**Q.** And the “Initial body weight Wt (i)” value (normal rats; HPBCD 1.5%, 1d, n = 6)?
**A.** 213 g

**Q.** What about the “Left kidney weight (Lt kd)” value (normal rats; HPBCD 1.5%, 1d, n = 6) of the same substance?
**A.** 867 mg

**Q.** What about the “Left kidney/body weight (Lt kd/wt)” value (normal rats; HPBCD 1.5%, 1d, n = 6) of the same substance?
**A.** 4.11 mg/g

**Q.** And the Mortality (normal rats; HPBCD 1.5%, 1d, n = 6)?
**A.** 0%

**Q.** What about the “Right kidney weight (Rt kd)” value (normal rats; HPBCD 1.5%, 1d, n = 6) of the same substance?
**A.** 860 mg

**Q.** And the “Right kidney/body weight (Rt kd/wt)” value (normal rats; HPBCD 1.5%, 1d, n = 6)?
**A.** 4.08 mg/g

**Q.** And the BUN (normal rats; HPBCD 1.5%, 3d, n = 6)?
**A.** 19.8 mg/dL

**Q.** What about the “Final body weight Wt (f)” value (normal rats; HPBCD 1.5%, 3d, n = 6) of the same substance?
**A.** 280 g

**Q.** And the “Initial body weight Wt (i)” value (normal rats; HPBCD 1.5%, 3d, n = 6)?
**A.** 296 g

**Q.** And the “Left kidney weight (Lt kd)” value (normal rats; HPBCD 1.5%, 3d, n = 6)?
**A.** 1027 mg

**Q.** And the “Left kidney/body weight (Lt kd/wt)” value (normal rats; HPBCD 1.5%, 3d, n = 6)?
**A.** 3.68 mg/g

**Q.** What about the Mortality (normal rats; HPBCD 1.5%, 3d, n = 6) of the same substance?
**A.** 0%

**Q.** What about the “Right kidney weight (Rt kd)” value (normal rats; HPBCD 1.5%, 3d, n = 6) of the same substance?
**A.** 1009 mg

**Q.** And the “Right kidney/body weight (Rt kd/wt)” value (normal rats; HPBCD 1.5%, 3d, n = 6)?
**A.** 3.61 mg/g

**Q.** What about the BUN (normal rats; HPBCD 3%, 1d, n = 6) of the same substance?
**A.** 15.7 mg/dL

**Q.** What about the “Final body weight Wt (f)” value (normal rats; HPBCD 3%, 1d, n = 6) of the same substance?
**A.** 301 g

**Q.** What about the “Initial body weight Wt (i)” value (normal rats; HPBCD 3%, 1d, n = 6) of the same substance?
**A.** 322 g

**Q.** And the “Left kidney weight (Lt kd)” value (normal rats; HPBCD 3%, 1d, n = 6)?
**A.** 1034 mg

**Q.** And the “Left kidney/body weight (Lt kd/wt)” value (normal rats; HPBCD 3%, 1d, n = 6)?
**A.** 3.43 mg/g

**Q.** What about the Mortality (normal rats; HPBCD 3%, 1d, n = 6) of the same substance?
**A.** 0%

**Q.** And the “Right kidney weight (Rt kd)” value (normal rats; HPBCD 3%, 1d, n = 6)?
**A.** 1054 mg

**Q.** What about the “Right kidney/body weight (Rt kd/wt)” value (normal rats; HPBCD 3%, 1d, n = 6) of the same substance?
**A.** 3.49 mg/g

**Q.** What about the BUN (normal rats; HPBCD 3%, 3d, n = 6) of the same substance?
**A.** 19.9 mg/dL

**Q.** What about the “Final body weight Wt (f)” value (normal rats; HPBCD 3%, 3d, n = 6) of the same substance?
**A.** 267 g

**Q.** And the “Initial body weight Wt (i)” value (normal rats; HPBCD 3%, 3d, n = 6)?
**A.** 275 g

**Q.** What about the “Left kidney weight (Lt kd)” value (normal rats; HPBCD 3%, 3d, n = 6) of the same substance?
**A.** 995 mg

**Q.** What about the “Left kidney/body weight (Lt kd/wt)” value (normal rats; HPBCD 3%, 3d, n = 6) of the same substance?
**A.** 3.72 mg/g

**Q.** And the Mortality (normal rats; HPBCD 3%, 3d, n = 6)?
**A.** 0%

**Q.** What about the “Right kidney weight (Rt kd)” value (normal rats; HPBCD 3%, 3d, n = 6) of the same substance?
**A.** 1009 mg

**Q.** And the “Right kidney/body weight (Rt kd/wt)” value (normal rats; HPBCD 3%, 3d, n = 6)?
**A.** 3.78 mg/g

**Q.** And the BUN (normal rats; HPBCD 6%, 1d, n = 6)?
**A.** 14.5 mg/dL

**Q.** What about the “Final body weight Wt (f)” value (normal rats; HPBCD 6%, 1d, n = 6) of the same substance?
**A.** 227 g

**Q.** What about the “Initial body weight Wt (i)” value (normal rats; HPBCD 6%, 1d, n = 6) of the same substance?
**A.** 240 g

**Q.** What about the “Left kidney weight (Lt kd)” value (normal rats; HPBCD 6%, 1d, n = 6) of the same substance?
**A.** 1076 mg

**Q.** What about the “Left kidney/body weight (Lt kd/wt)” value (normal rats; HPBCD 6%, 1d, n = 6) of the same substance?
**A.** 4.73 mg/g

**Q.** And the Mortality (normal rats; HPBCD 6%, 1d, n = 6)?
**A.** 0%

**Q.** And the “Right kidney weight (Rt kd)” value (normal rats; HPBCD 6%, 1d, n = 6)?
**A.** 1066 mg

**Q.** What about the “Right kidney/body weight (Rt kd/wt)” value (normal rats; HPBCD 6%, 1d, n = 6) of the same substance?
**A.** 4.70 mg/g

**Q.** What about the Rats died (normal rats; HPBCD Groups, 1 and 3 day, in words) of the same substance?
**A.** None of the rats
